From patent US12054509B2, “Antimicrobial compounds, compositions, and uses thereof” (Lakewood Amedex, Inc., priority 2017, dated 2024)
Like-named read-outs stand apart in the source and are kept apart here.

Assays:
Experiment in all cases: MIC against a single isolate (Example 26)
Assay type in all cases: cell-based
Candida Albicans = conditions: read-out: C. albicans MIC
Experimental: (§1) Bacterial strains evaluated in this study include Escherichia coli, Klebsiella spp, Serratia marcescens, Proteus mirabilis/vulgaris, Citrobacter spp, Providencia spp, Morganella morganii, Pseudomonas aeruginosa, Staphylococcus aureus (MRSA only), and Enterococcus faecalis. Nu-8 test solutions are adjusted to pH 3.5 with citric acid, and MIC is evaluated per the CLSI methods in Mueller-Hinton broth supplemented accordingly to facilitate growth of specific strains.
(§2) MIC was determined as per Example 9 using LAI-101, LAI-102, Nu-10, LAI-105, LAI-106, Nu-3, and Nu-8 against a single isolate of Escherichia coli. Pseudomonas aeruginosa, Staphylococcus aureus (MRSA only), and Candida Albicans. For all microbe species, the LAI-101, LAI-102, Nu-10, LAI-105, and LAI-106 all perform at least as well as, and in many experiments better than, Nu-8 and Nu-3, which are both already quite active compounds.

Escherichia coli = conditions: read-out: E. coli MIC
Experimental: as §1, §2

Pseudomonas aeruginosa = conditions: read-out: P. aeruginosa MIC
Experimental: as §1, §2

[1] = tested on: Staphylococcus aureus (MRSA only); conditions: read-out: S. aureus MIC
Experimental: as §1, §2

Row | MIC (Candida Albicans; single isolate) [mg/mL] | MIC (Escherichia coli; single isolate) [µg/mL] | MIC (Pseudomonas aeruginosa; single isolate) [µg/mL] | MIC ([1]; single isolate) [µg/mL] | SMILES | MIC (Candida Albicans) [mg/mL] | MIC (Escherichia coli) [µg/mL] | MIC (Pseudomonas aeruginosa) [µg/mL] | MIC [1] [µg/mL]
1 |  |  |  |  | CC(C)COP(=O)(O)OC[C@H]1O[C@@H](n2ccc(N)nc2=O)C[C@@H]1OP(=O)(O)OCC(C)C [LAI-101, ((2R,3S,5R)-5-(4-amino-2-oxopyrimidin-1(2H)-yl)-3-((hydroxy(isobutoxy)phosphoryl)-oxy)tetrahydrofuran-2-yl)methyl isobutyl hydrogen phosphate] | 50 | 5000 | 5000 | 5000
2 |  |  |  |  | Nc1ccn([C@H]2C[C@H](OP(=O)(O)OCc3ccccc3)[C@@H](COP(=O)(O)OCc3ccccc3)O2)c(=O)n1 [LAI-102, ((2R,3S,5R)-5-(4-amino-2-oxopyrimidin-1(2H)-yl)-3-(((benzyloxy)(hydroxy)-phosphoryl)oxy)tetrahydrofuran-2-yl)methyl benzyl hydrogen phosphate] | 50 | 5000 | 25000 | 25000
3 | > 5 | > 5000 | 5000 | > 5000 | Nc1ncnc2c1ncn2[C@H]1C[C@H](OP(=O)(O)OC2CCCCC2)[C@@H](COP(=O)(O)OC2CCCCC2)O1 [LAI-105, ((2R,3S,5R)-5-(6-amino-9H-purin-9-yl)-3-(((cyclohexyloxy)(hydroxy)phosphoryl)oxy)tetrahydrofuran-2-yl)methyl cyclohexyl hydrogen phosphate] |  |  |  | 
